Source: PubChem BioAssay (NCI)
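A five-concentration, 48-hour dose response in 96-well plates underlies each endpoint, interpolated linearly between surrounding concentrations. At the GI50, growth is halved. TGI: concentration producing complete growth inhibition.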

How the values were obtained:
Experiment in all cases: inhibition of tumour cell growth, NCI panel, 48 h
[1] = system: M19-MEL melanoma
[2] = system: UACC-62 melanoma
[3] = system: SK-MEL-28 melanoma
[4] = system: ACHN renal
[5] = system: DLD-1 colon
[6] = system: LOX IMVI melanoma
[7] = system: HOP-62 NSCLC
[8] = system: SK-MEL-5 melanoma
[9] = system: MDA-MB-231 breast
[10] = system: NCI/ADR-RES ovarian

| SMILES | TGI [1] [µM] | TGI [2] [µM] | TGI [3] [µM] | TGI [4] [µM] | TGI [5] [µM] | TGI [6] [µM] | TGI [7] [µM] | TGI [8] [µM] | TGI [9] [µM] | TGI [10] [µM] | GI50 [8] [µM] | GI50 [2] [µM] | GI50 [3] [µM] | GI50 [9] [µM] | GI50 [4] [µM] | GI50 [6] [µM] | GI50 [10] [µM] | GI50 [7] [µM] |
| --- | --- | --- | --- | --- | --- | --- | --- | --- | --- | --- | --- | --- | --- | --- | --- | --- | --- | --- |
| COc1cc2ccnc3c(=C(SC)SC)c(=O)c(c1OC)c23 | 30.2 | 37.9 | 26 | 26 | 29.5 | 10.7 | > 100 |  |  |  |  |  |  |  |  |  |  |  |
| CC1OC(CC(=O)O)CC2=C1C(=O)c1c(O)cccc1C2=O (stereo not given) | 0.213 | 0.268 | 0.2 | 0.658 | 0.0781 | 0.111 | 2.94 | 1.15 | 0.707 |  |  |  |  |  |  |  |  |  |
| O=C(CCCN1CCC(C(O)c2ccc(F)cc2)CC1)c1ccc(F)cc1 (stereo not given) | 115 | 114 | 118 | 99.9 | 120 | 103 | 125 | 99.3 | 89.7 | 149 |  |  |  |  |  |  |  |  |
| O=C(NCCCl)SCCO | > 100 | > 100 | > 100 | > 100 | > 100 |  | > 100 |  |  |  |  |  |  |  |  |  |  |  |
| NC(=O)NC1C(C(=O)O)N(Cc2ccccc2)C(=O)N1Cc1ccccc1 (stereo not given) | > 100 | > 100 | > 100 | > 100 | > 100 | > 100 | > 100 | > 100 |  |  |  |  |  |  |  |  |  |  |
| CCC1(CN(C)C)CC/C(=C\c2ccc(OC)c(OC)c2)C1=O (stereo not given) | > 100 | > 100 | > 100 | > 100 | > 100 | > 100 | > 100 | > 100 |  |  |  |  |  |  |  |  |  |  |
| N#CC1=C(O)NC(O)=C(C#N)C1c1ccc(C2C(C#N)=C(O)NC(O)=C2C#N)cc1 | > 100 | > 100 | > 100 | > 100 | > 100 | > 100 | > 100 | > 100 |  |  |  |  |  |  |  |  |  |  |
| CC(=O)NC(C=O)C(O[C@H](C)C(=O)NC(C)C(=O)NC(CCC(N)=O)C(=O)OCc1ccccc1)C(O)C(O)COC(=O)CCNc1c2ccccc2nc2cccc([N+](=O)[O-])c12 (stereo not given in full) | 4.02 | 10.5 | 11.6 |  | 16.5 | 31.3 | 10.2 | > 100 |  |  |  |  |  |  |  |  |  |  |
| O=c1[nH]cnc2c(COCCO)c[nH]c12 | > 100 | > 100 | > 100 | > 100 | > 100 | > 100 | > 100 | > 100 |  |  |  |  |  |  |  |  |  |  |
| NC(=O)CC(N=Cc1nc(-c2ccccc2)oc1O)C(=O)O (stereo not given) | > 100 | > 100 | > 100 | > 100 | > 100 | > 100 | > 100 | > 100 |  |  |  |  |  |  |  |  |  |  |
| COc1cccc(SSc2cccc(OC)c2C(=O)O)c1C(=O)O | > 100 | > 100 | > 100 | > 100 | > 100 | > 100 | > 100 | > 100 |  |  |  |  |  |  |  |  |  |  |
| N#Cc1cccc(C=NC23CC4CC(CC(C4)C2)C3)c1 | > 100 | > 100 | > 100 | > 100 |  | > 100 | > 100 |  |  |  |  |  |  |  |  |  |  |  |
| Cn1cc(C(=O)c2ccccc2)cc(C(=O)c2ccccc2)c1=O | > 100 | > 100 | > 100 | > 100 | > 100 | > 100 | > 100 | > 100 |  |  |  |  |  |  |  |  |  |  |
| Cc1ccc(NC(=O)CCc2n[nH]c(=S)o2)cc1 | > 100 | > 100 | > 100 | > 100 | > 100 | > 100 | > 100 | > 100 |  |  |  |  |  |  |  |  |  |  |
| COCCOCCOCCOc1cccc2c1C(=O)c1cccc(OCCOCCOCCOC)c1C2=O | > 100 | > 100 | > 100 | > 100 | > 100 | > 100 | > 100 | > 100 |  |  |  |  |  |  |  |  |  |  |
| CC(=O)c1ccc(NC(=O)COC(=O)c2cccc3c(=O)c4ccccc4[nH]c23)cc1 | > 100 | > 100 | > 100 | > 100 | > 100 | 51.5 | 90.7 | > 100 |  |  |  |  |  |  |  |  |  |  |
| COc1ccc(NC(=O)CC(=O)n2nc(C)c(N=Nc3ccccc3C(=O)O)c2C)cc1 | > 100 | > 100 | > 100 |  | > 100 | > 100 | > 100 | > 100 |  |  |  |  |  |  |  |  |  |  |
| Cc1ccc(S(=O)(=O)N/N=C/C(C)C)cc1 | > 100 | > 100 |  | > 100 | > 100 | > 100 | > 100 | > 100 |  |  |  |  |  |  |  |  |  |  |
| C=C(C(=C)P(=S)(C(C)C)C(C)C)P(=S)(C(C)C)C(C)C | > 100 | > 100 | > 100 | > 100 | > 100 | > 100 | > 100 | > 100 |  |  |  |  |  |  |  |  |  |  |
| CCCCCCCCCCCc1c(O)c(=O)c2c(oc3c(=O)c(CCCCCCCCCCC)c(O)c(=O)c3n2-c2ccc(N(C)C)cc2)c1=O |  | 34.3 | 40 | 42.8 | 50.5 | 50.7 | 45.9 | 34 |  |  |  |  |  |  |  |  |  |  |
| Cc1cccc2c3c(sc12)C(c1ccc(F)cc1)C(C#N)=C(N)O3 (stereo not given) |  | 11.7 | 20.7 | 13.2 |  | 5.2 | 12.9 | 1.38 | 8.4 | 4.14 | 0.111 | 0.0433 | 1.97 | 0.346 | 0.0658 | 0.0608 | 0.0446 | 0.127 |
| OCCN(CCO)c1cccc(N(CCO)CCO)n1 | > 100 | > 100 | > 100 | > 100 | > 100 | > 100 | > 100 | > 100 |  |  |  |  |  |  |  |  |  |  |
| NC(=O)c1sc(-n2cnc3cc(C(F)(F)F)ccc32)cc1OCc1ccccc1Br |  | > 25 | > 25 | > 25 |  | > 25 | > 16.9 | > 25 | > 25 | > 25 | > 16.5 | > 21.6 | > 23.4 | > 17.6 | > 22.4 | > 17.5 | > 17.4 | 6.49 |
| CCSC[C@@H]1C[C@](O)(c2ccc(F)cc2)[C@@H](c2ccc(F)cc2)O1 |  | 27.4 | 33.3 | 32.6 |  | 32.2 | 33.4 | 28 | 30.1 | 51 | 14.8 | 13.4 | 18.3 | 15.3 | 18.4 | 17.3 | 21.3 | 18.2 |
